Test system: Microbes of the genus Salmonella: Salmonella Enteritidis IF03313
Format: cell-based
Details: stored at 25° C. Day 7; 1000 ppm available chlorine
Source text: 1) Chlorous acid aqueous solution formulation (see Example 1: Table 11) Treatment sheet (material: 100% cotton): (about 27×40 cm) *Impregnated at a ratio of weight of treatment sheet (g): amount of liquid (ml)=1:3 2) Imitation vomit Miso solution: adjusted to pH of 2 with hydrochloric acid 3) Test Microbes that were Used E. coli: Escherichia coli IF03927 Staphylococcus aureus: Staphylococcus aureus IF0 12732 Thermoduric Microbes (Bacillus cereus): Bacillus cereus NBRC15305 Microbes of the genus Salmonella: Salmonella Enteritidis IF03313 Enterohemorrhagic Escherichia coli O157: Escherichia coli O157 Enterohemorrhagic Escherichia coli O111: Escherichia coli O111 Enterohemorrhagic Escherichia coli O26: Escherichia coli O26
(1) Imitation vomit was spread in an area about the size of an A4 sheet. (2) 5 dry sheets were laid thereon. (3) An agent solution was poured on the dry sheets to wipe off the imitation vomit. (4) A cotton swab was soaked with sterile saline. A portion where imitation vomit was spread was scrubbed with the cotton swab to collect microbes remaining on the floor. After suspending in saline, the solution was spread on a petri dish and cultured. The number of each of the microbes was measured. (5) Test operations 3 and 4 were repeated a total of 7 times (repeated until the imitation vomit could be removed completely).

[Na] [Sodium]
<10: Number of Times Wiped 1 Time (remaining microbes) | Number of Times Wiped 2 Times (remaining microbes) | Number of Times Wiped 3 Times (remaining microbes)

— US20170015555A1, “LONG-TERM PRESERVATION AND NOVEL APPLICATION OF CHLOROUS ACID AQUEOUS SOLUTION FORMULATION” (priority 2013, published 2017)
